“Also recorded” adds a separate entry of the source. Read-outs that look alike come from different tables or passages of the source.
Columns and labels:
lynx1 mRNA [1] = assay: Knock-down of lynx1 mRNA after delivery of anti-lynx1 siRNA into cultured cortical neurons via peptide variant-siRNA complexes (qPCR); type: cell-based, mouse
lynx1 mRNA [2] = assay: siRNA uptake of peptide-lynx1 siRNA complexes into primary neuronal cultures (lynx1 mRNA knock-down, qPCR); type: cell-based; settings: 25 uM peptide + 2.5 uM lynx1 siRNA (siRNA1), poly-D arginine linker, 24 hours, primary cortical mouse neurons, FIG. 8
lynx1 mRNA [3] = assay: lynx1 knock-down by lynx1 siRNA species in cultured cortical neurons (TaqMan qPCR); type: cell-based, mouse; settings: siRNA transfected by Accell method, lynx1 mRNA relative to mock, FIG. 6
primary cortical neurons = type: cell-based, mouse

MTTRTYATPYRMKVRKS [Mutant 2]
knock-down of lynx1 mRNA relative to the lynx1-loop2 peptide-siRNA complex (lynx1 mRNA [1]): significantly reduces lynx1-loop2 peptide ability to transport siRNA into neurons; also recorded: not as effective for decreasing lynx1 expression

GCACUGAUUUGAUAGAAUU (siRNA; purchased Accell siRNA, chemistry not given here) [siRNA1, SMART pool siRNA A-062811-13 LYNX1, Thermo Scientific/Dharmacon]
knock-down of lynx1 mRNA relative to the lynx1-loop2 peptide-siRNA complex (lynx1 mRNA [1]; 5 μM peptide + 0.5 μM anti-lynx1 siRNA, 24 hours, cultured cortical neurons, lynx1-loop2 set to 100%, siRNA alone set at 0%, FIG. 10): did not result in knock-down of lynx1 mRNA | reduction in lynx1 mRNA compared to no siRNA (Mock) (lynx1 mRNA [2]): no significant reduction in lynx1 mRNA levels | reduction of lynx1 expression (lynx1 mRNA [3]): more than 90%

MTTRTYFTPYAMADRKS [Mutant 3]
knock-down of lynx1 mRNA relative to the lynx1-loop2 peptide-siRNA complex (lynx1 mRNA [1]): abolish lynx1-loop2 peptide function; also recorded: not as effective for decreasing lynx1 expression

MTWCDYFTPSRGKVRKS [Mutant 1]
decrease of lynx1 mRNA compared to RVG29 and RVG19 complexes (lynx1 mRNA [1]): more effective at decreasing levels of lynx1 mRNA compared to RVG29 and RVG19; also recorded: decrease lynx1 mRNA in cultured cortical neurons more effectively than both RVG29 and RVG19 | knock-down of lynx1 mRNA relative to the lynx1-loop2 peptide-siRNA complex (lynx1 mRNA [1]): as capable of translocating siRNA into neurons as is lynx1-loop2; also recorded: enhanced the knock-down compared to SEQ ID NO:2 peptide; also recorded: capable of decreasing lynx1 expression in cultured cortical neurons as well as a peptide having the sequence of SEQ ID NO:2

EVMEQSAGIMYRKS [lynx2-loop2]
binding of biotinylated peptide to neurons in culture (primary cortical neurons): did not reliably bind to neurons

Reference: patent US12208143B2, “Compositions and methods for transport across the blood brain barrier” (OPHIDION INC., priority 2011, dated 2025)
